# According to the supplement of paper PMC10307832:
# Assays:
# Assay in all cases: relative viability (nuclei count vs DMSO), 5 days (fraction); higher = more cells survive
# NCI-H1395 = test system: NCI-H1395
# Outline: (§1)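 One day after seeding in 1536-well plates, lung cancer cell lines were dosed by pin tool. Dosing was either single-drug or a fixed anchor-drug dose plus five library-drug doses (not always all listed) in √10 steps. After 5 days, nuclei were stained in one fix-and-stain step and counted on 4× images, and relative viability is the nuclei count of treated wells over that of vehicle wells, given as the median of duplicate plates.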
# CAL-12T = test system: CAL-12T
# Outline: as §1
# NCI-H2228 = test system: NCI-H2228
# Outline: as §1
# NCI-H1793 = test system: NCI-H1793
# Outline: as §1
# NCI-H1651 = test system: NCI-H1651
# Outline: as §1
# ChaGo-K-1 = test system: ChaGo-K-1
# Outline: as §1
# HCC-366 = test system: HCC-366
# Outline: as §1
# LC-2-ad = test system: LC-2-ad
# Outline: as §1
# RERF-LC-KJ = test system: RERF-LC-KJ
# Outline: as §1
# NCI-H2087 = test system: NCI-H2087
# Outline: as §1
# NCI-H2405 = test system: NCI-H2405
# Outline: as §1
smiles,measurement,setting,value
Cc1sc2c(c1C)C(c1ccc(Cl)cc1)=N[C@@H](CC(=O)OC(C)(C)C)c1nnc(C)n1-2 [JQ1] + COc1cccc2cc(-c3nc([C@H]4CC[C@H](C(=O)O)CC4)n4ncnc(N)c34)[nH]c12 [OSI-027] (partner 0.5 µM),relative viability,NCI-H1395; first compound 0.04 µM,0.626
same,relative viability,NCI-H1395; first compound 0.1265 µM,0.489
same,relative viability,NCI-H1395; first compound 0.4 µM,0.605
same,relative viability,NCI-H1395; first compound 1.265 µM,0.488
same,relative viability,NCI-H1395; first compound 4 µM,0.477
same,relative viability,CAL-12T; first compound 0.04 µM,0.618
same,relative viability,CAL-12T; first compound 0.1265 µM,0.586
same,relative viability,CAL-12T; first compound 0.4 µM,0.32
same,relative viability,CAL-12T; first compound 1.265 µM,0.192
same,relative viability,CAL-12T; first compound 4 µM,0.173
same,relative viability,NCI-H2228; first compound 0.04 µM,0.731
same,relative viability,NCI-H2228; first compound 0.1265 µM,0.657
same,relative viability,NCI-H2228; first compound 0.4 µM,0.466
same,relative viability,NCI-H2228; first compound 1.265 µM,0.257
same,relative viability,NCI-H2228; first compound 4 µM,0.296
same,relative viability,NCI-H1793; first compound 0.04 µM,0.237
same,relative viability,NCI-H1793; first compound 0.1265 µM,0.343
same,relative viability,NCI-H1793; first compound 0.4 µM,0.38
same,relative viability,NCI-H1793; first compound 1.265 µM,0.241
same,relative viability,NCI-H1793; first compound 4 µM,0.286
same,relative viability,NCI-H1651; first compound 0.04 µM,0.624
same,relative viability,NCI-H1651; first compound 0.1265 µM,0.638
same,relative viability,NCI-H1651; first compound 0.4 µM,0.591
same,relative viability,NCI-H1651; first compound 1.265 µM,0.391
same,relative viability,NCI-H1651; first compound 4 µM,0.407
same,relative viability,ChaGo-K-1; first compound 0.04 µM,0.564
same,relative viability,ChaGo-K-1; first compound 0.1265 µM,0.519
same,relative viability,ChaGo-K-1; first compound 0.4 µM,0.472
same,relative viability,ChaGo-K-1; first compound 1.265 µM,0.345
same,relative viability,ChaGo-K-1; first compound 4 µM,0.28
same,relative viability,HCC-366; first compound 0.04 µM,0.958
same,relative viability,HCC-366; first compound 0.4 µM,0.783
same,relative viability,HCC-366; first compound 1.265 µM,0.336
same,relative viability,HCC-366; first compound 4 µM,0.31
same,relative viability,LC-2-ad; first compound 0.04 µM,0.77
same,relative viability,LC-2-ad; first compound 0.1265 µM,0.543
same,relative viability,LC-2-ad; first compound 0.4 µM,0.62
same,relative viability,LC-2-ad; first compound 1.265 µM,0.366
same,relative viability,LC-2-ad; first compound 4 µM,0.302
same,relative viability,RERF-LC-KJ; first compound 0.04 µM,0.634
same,relative viability,RERF-LC-KJ; first compound 0.1265 µM,0.518
same,relative viability,RERF-LC-KJ; first compound 0.4 µM,0.531
same,relative viability,RERF-LC-KJ; first compound 1.265 µM,0.335
same,relative viability,RERF-LC-KJ; first compound 4 µM,0.338
same,relative viability,NCI-H2087; first compound 0.04 µM,0.586
same,relative viability,NCI-H2087; first compound 0.1265 µM,0.643
same,relative viability,NCI-H2087; first compound 0.4 µM,0.699
same,relative viability,NCI-H2087; first compound 1.265 µM,0.302
same,relative viability,NCI-H2087; first compound 4 µM,0.301
same,relative viability,NCI-H2405; first compound 0.04 µM,0.651
same,relative viability,NCI-H2405; first compound 0.1265 µM,0.632
same,relative viability,NCI-H2405; first compound 0.4 µM,0.696
same,relative viability,NCI-H2405; first compound 1.265 µM,0.58
same,relative viability,NCI-H2405; first compound 4 µM,0.582
